In patent US7678380B2, “Cosmetic treatment method for fighting against skin ageing effects” (LVMH Recherche, priority 1996, dated 2010):
Read-outs that look alike come from different tables or passages of the source.

Test system: adhesion of normal human keratinocytes to type IV collagen
Settings: for percentage increase in adhesion: compared with control cultures; for A = adhesion in μg of protein per well (mean): keratinocytes of a donor, control 3.52
Procedure: Coating of the Adhesion Surfaces with Type IV Collagen
Wells of microplates (Falcon) are covered with 6 μg/cm^2 of sterile type IV human collagen (from Sigma).
Each well is then incubated overnight at +4° C. with a 4 mg/ml solution of bovine albumin, BSA, from Sigma.
The wells are then rinsed twice with a phosphate buffer, PBS (phosphate buffered saline), from Gibco.
Preparation of the Cultures of Normal Human Keratinocytes
The skin fragments are incubated in 0.25% w/v trypsin for 18 hours at +4° C. to separate the dermis and epidermis and to obtain, by agitation, a suspension of epidermal cells. The trypsin is neutralized with fetal calf serum, FCS, from Gibco.
The cells are inoculated into flasks defining a surface area of 75 cm^2 and are cultured in keratinocyte proliferation medium, K-SFM, from Gibco, to the point of confluence, when they are subcultured.
The cells used for the experiments for adhesion to the collagen substrate were not subcultured beyond the first subculture (called P0 or P1).
The keratinocytes are then incubated for 30 minutes at +4° C. before the step for adhesion to the substrate coated with collagen IV is carried out.
Measurement of the Adhesion of the Keratinocytes to the Type IV Collagen
The keratinocytes are inoculated into each well at a density of 93,000 cells/cm^2 in E 199 medium from Gibco, containing 2 mM L-glutamine from Gibco and 4 mg/ml of BSA (bovine serum albumin). After incubation for one hour at +4° C., the wells are rinsed with PBS, the adhering cells are then lyzed with 0.1 N sodium hydroxide solution and the cellular proteins are then quantified by means of the calorimetric method and bicinchoninic acid (BCA from Sigma).
A calibration is performed in parallel with BSA solubilized in 0.1 N sodium hydroxide solution, enabling the optical density (OD) values to be converted to micrograms (μg) of proteins per well.
These adhesion values between treated and untreated cells were compared by the 0.7 Student t-test at the p=0.05 threshold in order to assess their level of significance.

Row | SMILES | percentage increase in adhesion (0.25 mM) | A = adhesion in μg of protein per well (mean) (0.25 mM) | A = adhesion in μg of protein per well (mean) (0.5 mM) | percentage increase in adhesion (1 mM) | A = adhesion in μg of protein per well (mean) (1 mM)
1 | N[C@@H](CC(=O)[O-])C(=O)[O-].[Mg+2] [Magnesium aspartate, magnesium aspartate] | +54% | 5.39 μg of protein per well |  |  | 
2 | [Cl-].[Cl-].[Mg+2] [Magnesium chloride, magnesium chloride] |  | 4.32 μg of protein per well | 4.54 μg of protein per well | +31% | 4.57 μg of protein per well
